According to patent publication US20060193844A1, “Methods for enzyme inhibition” (Proteolix, Inc., priority 2005, published 2006):

Legend:
HT-29 cell line = test: Human xenograft model, tumor volume; type: in vivo; details: dose equivalent to the MTD for this strain of mouse, clinical schedule; FIG. 4
Description: In a human xenograft model using an HT-29 cell line, proteasome inhibitors were administered using the indicated regimens.

[1] = twice weekly for two weeks (days 1, 4, 8 and 11) followed by a ten-day rest period; cited from earlier work
[2] = female rats; daily administration of doses that result in 80% inhibition of the proteasome; cited from earlier work
[3] = monkeys, cited from earlier work

SMILES: CC(C)C[C@H](NC(=O)[C@H](Cc1ccccc1)NC(=O)c1cnccn1)B(O)O [bortezomib]
- anti-tumor response (HT-29 cell line): unable to induce an anti-tumor response
- maximum tolerated dose (MTD) [1]: 1.3 mg/m^2/dose
- lethality [2]: 67%
- highest daily dose without severe toxicity, fold less than the MTD on the clinical dosing schedule [3]: 20 fold
- highest dose without severe toxicity ([3]; daily administered): 0.5 mg/m^2
